ChEMBL document CHEMBL5705903, “A DNA Hypomethylation Signature Predicts Antitumor Activity of LSD1 Inhibitors in SCLC” (Cancer Cell, 2015)
Activity calls are given as the source filed them. The rule behind the calls is not given here.

Assays:
[1] = Inhibition of GABA-A receptor (unknown origin); parameters: species or system Homo sapiens
[2] = Inhibition of Cav1.2 (unknown origin); parameters: species or system Homo sapiens
[3] = Effect on cleaved PARP level in human NCI-H146 cells assessed as relative expression at 1000 nM measured after 7 days by Western blot analysis (reference value: […]); format: functional; conditions: time 7 day
NCI-H526 [4] = test: In vivo inhibition of LSD1 in human NCI-H526 cells xenografted in nude mouse assessed as change in TSPAN8 gene expression administrated daily for 5 days by qRT-PCR analysis; format: functional, organism-based; conditions: dose 0.02-135 mg/kg, time 5.0 day
SHP77 = test: Effect on SYP gene expression in human SHP77 cells at 1 uM measured after 4 days by qRT-PCR analysis; format: functional, cell-based; conditions: time 4.0 day
NCI-H69 = test: Antitumor activity against human NCI-H69 cells xenografted in nude mouse assessed as tumor growth inhibition at 0.5 mg/kg, po administered daily measured twice weekly relative to control; format: functional; conditions: read-out: TGI
[5] = Effect on cleaved PARP level in human NCI-H1694 cells assessed as fold change at 1000 nM measured after 7 days by Western blot analysis (reference value: 1.00); format: functional; conditions: time 7 day
[6] = Effect on cleaved PARP level in human NCI-H510 cells assessed as relative expression at 10 nM measured after 7 days by Western blot analysis (reference value: 0.24); format: functional, NCI-H510A; conditions: time 7 day
NCI-H526 [7] = test: In vivo inhibition of LSD1 in human NCI-H526 cells xenografted in nude mouse assessed as change in IGFBP2 gene expression measured after 24 hrs post single administration by qRT-PCR analysis; format: functional, organism-based; conditions: dose 0.06-135 mg/kg
[8] = Effect on cleaved PARP level in human NCI-H1694 cells assessed as relative expression at 10 nM measured after 7 days by Western blot analysis (reference value: 0.25); format: functional; conditions: time 7 day
NCI-H446 = test: Effect on NCAM gene expression in human NCI-H446 cells at 1 uM measured after 4 days by qRT-PCR analysis; format: functional, cell-based; conditions: time 4.0 day
[9] = Toxicity in rat assessed as effect on ECG measured for 28 days; conditions: in vivo, 672 h, time 28 day
[10] = Toxicity in rat assessed as myelofibrosis measured for 28 days; conditions: in vivo, 672 h, time 28 day
[11] = Effect on cleaved PARP level in human NCI-H2171 cells assessed as relative expression at 100 nM measured after 7 days by Western blot analysis (reference value: 0.02); format: functional; conditions: time 7 day
[12] = Effect on cleaved PARP level in human NCI-H510 cells assessed as fold change at 10 nM measured after 10 days by Western blot analysis (reference value: 1.00); format: functional, NCI-H510A; conditions: time 10 day
NCI-H526 [13] = test: In vivo inhibition of LSD1 in human NCI-H526 cells xenografted in nude mouse assessed as change in LIX1L gene expression administrated daily for 5 days by qRT-PCR analysis; format: functional, organism-based; conditions: dose 0.02-135 mg/kg, time 5.0 day
[14] = Toxicity in dog assessed as suppression of neutrophil in bone marrow measured for 28 days; format: cell-based, Canis lupus familiaris; conditions: 672 h, time 28 day
[15] = Effect on cleaved PARP level in human COLO-668 cells assessed as fold change at 100 nM measured after 10 days by Western blot analysis (reference value: 1.00); format: functional; conditions: time 10 day
NCI-H526 [16] = test: In vivo inhibition of LSD1 in human NCI-H526 cells xenografted in nude mouse assessed as change in TSPAN8 gene expression measured after 24 hrs post single administration by qRT-PCR analysis; format: functional, organism-based; conditions: dose 0.06-135 mg/kg
[17] = Effect on cleaved PARP level in human NCI-H146 cells assessed as fold change at 10 nM measured after 7 days by Western blot analysis (reference value: 1.00); format: functional; conditions: time 7 day
[18] = Effect on cleaved PARP level in human NCI-H1417 cells assessed as relative expression at 100 nM measured after 7 days by Western blot analysis (reference value: 0.10); format: functional; conditions: time 7 day
[19] = Effect on cleaved PARP level in human NCI-H1417 cells assessed as relative expression at 1000 nM measured after 14 days by Western blot analysis (reference value: 0.38); format: functional; conditions: time 14 day
[20] = Effect on cleaved PARP level in human NCI-H2171 cells assessed as relative expression at 1000 nM measured after 10 days by Western blot analysis (reference value: 0.02); format: functional; conditions: time 10 day
[21] = Toxicity in rat assessed as effect on hemodynamics measured for 28 days; conditions: in vivo, 672 h, time 28 day
[22] = Effect on cleaved PARP level in human COLO-668 cells assessed as relative expression at 10 nM measured after 10 days by Western blot analysis (reference value: 1.07); format: functional; conditions: time 10 day
[23] = Effect on cleaved PARP level in human COLO-668 cells assessed as relative expression at 1000 nM measured after 7 days by Western blot analysis (reference value: […]); format: functional; conditions: time 7 day
[24] = target: T1, Lysine-specific histone demethylase 1A (Homo sapiens, UniProt O60341); conditions: NCI-H526, dose 1-10000 nM, time 1-7 day
Description: Inhibition of LSD1 in human NCI-H526 cells assessed as change in IGFBP2 gene expression at 1 to 10000 nM by qRT-PCR analysis

[25] = Effect on cleaved PARP level in human NCI-H2171 cells assessed as relative expression at 100 nM measured after 10 days by Western blot analysis (reference value: 0.02); format: functional; conditions: time 10 day
NCI-H526 [26] = test: Antitumor activity against human NCI-H526 cells xenografted in nude mouse assessed as tumor growth inhibition at 1.5 mg/kg, po administered daily measured twice weekly relative to control; format: functional; conditions: read-out: TGI
[27] = Effect on cleaved PARP level in human NCI-H69 cells assessed as fold change at 100 nM measured after 7 days by Western blot analysis (reference value: 1.00); format: functional; conditions: time 7 day
[28] = Toxicity in mouse xenografted with human NCI-H1417 cells assessed as grooming behaviour at 1.5 mg/kg, po administered daily measured for 30 days; format: organism-based; conditions: in vivo, 720 h, time 30 day
[29] = Effect on cleaved PARP level in human NCI-H2171 cells assessed as relative expression at 10 nM measured after 14 days by Western blot analysis (reference value: 0.01); format: functional; conditions: time 14 day
NCI-H1417 = test: Cell growth inhibition of human NCI-H1417 cells measured for 4 days; format: functional, cell-based; conditions: time 4.0 day
[30] = Effect on cleaved PARP level in human NCI-H2171 cells assessed as fold change at 10 nM measured after 14 days by Western blot analysis (reference value: 1.00); format: functional; conditions: time 14 day
[31] = Effect on cleaved PARP level in human NCI-H889 cells assessed as fold change at 10 nM measured after 14 days by Western blot analysis (reference value: 1.00); format: functional; conditions: time 14 day
[32] = target: T1, Lysine-specific histone demethylase 1A
Description: Binding affinity to LSD1 (unknown origin) using H3K4me2 as substrate assessed as inactivation constant by HRP-coupled amplex red assay

[33] = Toxicity in mouse xenografted with human NCI-H526 cells assessed as grooming behaviour at 1.5 mg/kg, po administered daily measured for 30 days; format: organism-based; conditions: in vivo, 720 h, time 30 day
[34] = Effect on cleaved PARP level in human NCI-H2171 cells assessed as relative expression at 1000 nM measured after 7 days by Western blot analysis (reference value: 0.02); format: functional; conditions: time 7 day
[35] = Effect on cleaved PARP level in human NCI-H510 cells assessed as fold change at 10 nM measured after 14 days by Western blot analysis (reference value: 1.00); format: functional, NCI-H510A; conditions: time 14 day

Structure (SMILES): c1ccc([C@@H]2C[C@H]2NC2CCNCC2)cc1
- IC50 [1]: > 100 µM
- IC50 [2]: > 100 µM

Structure (SMILES): O=C(O)c1ccc(CN2CCC(CN[C@@H]3C[C@H]3c3ccccc3)CC2)cc1 [GSK2879552]
- Activity [3]: 2.43
- inhibition (NCI-H526 [4]): Dose-Dependent Effect
- Activity (SHP77): inactive
- inhibition in vivo at 0.5 mg/kg (NCI-H69): 51%
- fold change (FC) [5]: 1.44
- Activity [6]: 0.3
- inhibition (NCI-H526 [7]): Dose-Dependent Effect
- Activity [8]: 0.3
- Activity (NCI-H446): inactive
- Activity [9]: Toxic
- Activity [10]: Toxic
- Activity [11]: 0.03
- fold change (FC) [12]: 4.22
- inhibition (NCI-H526 [13]): Dose-Dependent Effect
- Activity [14]: Toxic
- fold change (FC) [15]: 0.69
- inhibition (NCI-H526 [16]): Dose-Dependent Effect
- fold change (FC) [17]: 1.09
- Activity [18]: 0.29
- Activity [19]: 0.42
- Activity [20]: 0.02
- Activity [21]: Toxic
- Activity [22]: 0.81
- Activity [23]: 1.36
- inhibition [24]: Tde
- Activity [25]: 0.02
- inhibition in vivo at 1.5 mg/kg (NCI-H526 [26]): 57%
- fold change (FC) [27]: 1.32
- Activity [28]: Non-Toxic
- Activity [29]: 0.01
- growth inhibition (GI) (NCI-H1417): inactive
- fold change (FC) [30]: 0.9
- fold change (FC) [31]: 1.84
- Kinact [32]: 0.11 min⁻¹
- Activity [33]: Non-Toxic
- Activity [34]: 0.04
- fold change (FC) [35]: 1.79
